Reference: paper PMC6522510 (Nature Communications, 2019)
pEC50: −log10 of the molar value. Structures can show the parent of a compound that is named as a salt. Where two headings read alike, the source gives them in different places. Values belong to the compound of their own block, whether it stands above or below them.

Assays:
MOLM-13 = assay: Secondary dose-response HTS, Cell Titer Glo; type: cell-based, human
MV4-11 [1] = assay: Secondary dose-response HTS, Cell Titer Glo; type: cell-based, human
CHRF288-11 = assay: Secondary dose-response HTS, Cell Titer Glo; type: cell-based, human; conditions: secondary high-throughput screen, CHRF288-11
CMK = assay: Secondary dose-response HTS, Cell Titer Glo; type: cell-based, human; conditions: CMK; for pEC50: Homo sapiens, read-out: average effective concentration, CMK
ML2 = assay: Secondary dose-response HTS, Cell Titer Glo; type: cell-based, human; conditions: for pEC50: Homo sapiens
U937 = assay: Secondary dose-response HTS, Cell Titer Glo; type: cell-based, human; conditions: for pEC50: Homo sapiens
MV4-11 [2] = assay: cells; set-up: species or system AML cell lines (8); Secondary HTS, 10-point dose-response in triplicate, Cell Titer Glo viability, four-parameter fit EC50; conditions: Homo sapiens, MV4-11, 72 h, read-out: MV4-11
M07e = assay: cells; set-up: species or system AML cell lines (8); Secondary HTS, 10-point dose-response in triplicate, Cell Titer Glo viability, four-parameter fit EC50; conditions: M-07e, 72 h, read-out: M07e
[3] = Homo sapiens, secondary high-throughput screen, MOLM-13, read-out: average effective concentration, MOLM-13
[4] = secondary high-throughput screen
[5] = secondary high-throughput screen, ML-2, read-out: average effective concentration, ML-2
[6] = U-937, secondary high-throughput screen, U937, read-out: average effective concentration, U937
[7] = secondary high-throughput screen, MOLM-13
[8] = secondary high-throughput screen, MV4-11

pEC50 (MOLM-13; [3]): 5.12 | pEC50 (MV4-11 [1]; Homo sapiens, secondary high-throughput screen, MV4-11, read-out: average effective concentration, MV4-11): < 5.00 | pEC50 (U937; [6]): < 5.00
Compound: NC(=O)c1cccc2cn(-c3ccc([C@@H]4CCCNC4)cc3)nc12 [NIRAPARIB]
pEC50 (CHRF288-11; Homo sapiens, HTS, read-out: average effective concentration, CHRF288-11): 6.66 | pEC50 (CMK; [4]): 6.55 | pEC50 (ML2; [5]): 6.74

Compound: O=c1cc(N2CCOCC2)oc2c(-c3cccc4c3sc3ccccc34)cccc12 [NU 7441]
average effective concentration, MOLM-13 (MOLM-13; [7]): Inactive | average effective concentration, MV4-11 (MV4-11 [1]; [8]): Inactive | average effective concentration, CHRF288-11 (CHRF288-11): Inactive | average effective concentration, CMK (CMK; [4]): Inactive | average effective concentration, U937 (U937; secondary high-throughput screen, U937): Inactive

Compound: CNC(=O)c1ccccc1Nc1nc(Nc2ccc(N3CCOCC3)cc2OC)ncc1Cl [NVP-TAE226]
average effective concentration, MV4-11 (MV4-11 [1]; [8]): Inactive

pEC50 (MV4-11 [2]): 8.07
Compound: COC[C@H](NC(=O)c1cnc(C)s1)C(=O)N[C@@H](COC)C(=O)N[C@@H](Cc1ccccc1)C(=O)[C@@]1(C)CO1 [Oprozomib]
pEC50 (M07e): 8.20

Compound: CN(c1ncccc1CNc1nc(Nc2ccc3c(c2)CC(=O)N3)ncc1C(F)(F)F)S(C)(=O)=O [PF-00562271]
average effective concentration, MOLM-13 (MOLM-13; [7]): Inactive | average effective concentration, MV4-11 (MV4-11 [1]; [8]): Inactive | average effective concentration, CHRF288-11 (CHRF288-11): Inactive

Compound: Cc1ccc(NC(=O)CCCCCC(=O)Nc2ccccc2N)cc1 [PIMELIC DIPHENYLAMIDE 106]
average effective concentration, MV4-11 (MV4-11 [1]; [8]): Inactive | average effective concentration, CMK (CMK; [4]): Inactive

Compound: CS(=O)(=O)N1CCN(Cc2cc3nc(-c4cccc5[nH]ncc45)nc(N4CCOCC4)c3s2)CC1 [Pictilisib, reference compound]
pEC50 (CMK): 5.64

Compound: Nc1ccc2ncnc(NCCc3ccc(Oc4ccccc4)cc3)c2c1 [QNZ]
average effective concentration, MOLM-13 (MOLM-13; [7]): Inactive | average effective concentration, MV4-11 (MV4-11 [1]; [8]): Inactive | average effective concentration, CHRF288-11 (CHRF288-11): Inactive | average effective concentration, CMK (CMK; [4]): Inactive | average effective concentration, ML-2 (ML2; secondary high-throughput screen, ML-2): Inactive

Compound: COc1ccc([C@@]23Oc4cc(OC)cc(OC)c4[C@]2(O)[C@H](O)[C@H](C(=O)N(C)C)[C@H]3c2ccccc2)cc1 [ROCAGLAMIDE A]
average effective concentration, MV4-11 (MV4-11 [1]; [8]): Inactive

Compound: O=C(CCCCCCNC(=O)c1cnc(N(c2ccccc2)c2ccccc2)nc1)NO [ROCILINOSTAT]
average effective concentration, MOLM-13 (MOLM-13; [7]): Inactive | average effective concentration, MV4-11 (MV4-11 [1]; [8]): Inactive

Compound: Cc1cc(Nc2ccc(NC(=O)c3ccc(Nc4ccnc5ccccc45)cc3)cc2)nc(N)n1 [SGI-1027]
average effective concentration, CMK (CMK; [4]): Inactive

Compound: O=C(Nc1ncc([N+](=O)[O-])s1)c1ccc([N+](=O)[O-])c(Cl)c1 [SM-7368]
average effective concentration, MOLM-13 (MOLM-13; [7]): Inactive | average effective concentration, MV4-11 (MV4-11 [1]; [8]): Inactive | average effective concentration, CHRF288-11 (CHRF288-11): Inactive | average effective concentration, CMK (CMK; [4]): Inactive

Compound: O=C(Nc1ccccc1-c1cn2c(CN3CCNCC3)csc2n1)c1cnc2ccccc2n1 [SRT1720]
average effective concentration, MV4-11 (MV4-11 [1]; [8]): Inactive | average effective concentration, CMK (CMK; [4]): Inactive

Compound: CN(C)CCCNc1c2ccccc2nc2c1[nH]c1ccccc12 [SYUIQ-5]
average effective concentration, MV4-11 (MV4-11 [1]; [8]): Inactive | average effective concentration, CMK (CMK; [4]): Inactive

pEC50 (MOLM-13; [3]): 7.74 | pEC50 (U937; [6]): < 5.00
Compound: CNC(=O)c1cc(Oc2ccc(NC(=O)Nc3ccc(Cl)c(C(F)(F)F)c3)cc2)ccn1 [Sorafenib, reference compound]
average effective concentration, CMK (CMK; [4]): 387 | pEC50 (ML2; [5]): < 5.00

pEC50 (MV4-11 [2]): < 5.00
Compound: CC/C(=C(\c1ccccc1)c1ccc(OCCN(C)C)cc1)c1ccccc1 [TAMOXIFEN CITRATE]

Compound: Nc1nc(NC2CC2)cc(-c2cccc(Cl)c2Cl)n1 [TH588]
average effective concentration, MOLM-13 (MOLM-13; [7]): Inactive | average effective concentration, MV4-11 (MV4-11 [1]; [8]): Inactive | average effective concentration, CHRF288-11 (CHRF288-11): Inactive

Compound: Cc1cc(Nc2cc(N3CCN(C)CC3)nc(Sc3ccc(NC(=O)C4CC4)cc3)n2)[nH]n1 [TOZASERTIB]
pEC50 (MOLM-13; Homo sapiens, MOLM-13, read-out: average effective concentration, MOLM-13): 7.41 | pEC50 (MV4-11 [1]; Homo sapiens, MV4-11, read-out: average effective concentration, MV4-11): 7.17 | pEC50 (CMK): 5.85 | pEC50 (ML2; ML-2, read-out: average effective concentration, ML-2): < 5.00 | pEC50 (U937; U-937, read-out: average effective concentration, U937): < 5.00

pEC50 (MV4-11 [2]): 7.91
Compound: COc1cc(OC)c(/C=C/S(=O)(=O)Cc2ccc(OC)c(NCC(=O)O)c2)c(OC)c1 [rigosertib]
pEC50 (M07e): < 5.00

Compound: AZD4547
pEC50 (MOLM-13; secondary high-throughput screen, MOLM-13, read-out: average effective concentration, MOLM-13): 5.39 | pEC50 (MV4-11 [1]; secondary high-throughput screen, MV4-11, read-out: average effective concentration, MV4-11): 5.11
